The values below come from US9663486B2, “Selectively substituted quinoline compounds” (EISAI R&D MANAGEMENT CO., LTD., priority 2013, dated 2017).

Bounds are passed on as bounds.

One experiment relates to Human TLR7/8. The experiment can be described thus: Human PBMC cell-based assay, TLR7/8 (RNA-Ig), cytokine ELISA. The note with it: PBMC assay data summary; ligand and analyte not given; read-out: Human PBMCs IC50. As to the method:
Human peripheral blood mononuclear cells (PBMC) were isolated from freshly-drawn heparinized (10 USP units/ml, Hospira, Lakeforest, Ill.) healthy donor whole blood by density gradient (Histopaque® 1077, Sigma, Inc., St. Louis, Mo.). Briefly, 25 ml blood was diluted with 15 ml PBS (without Ca^2+, Mg^2+) in a 50 ml conical tube, and 12 ml Histopaque was underlaid using a spinal needle. Tubes were centrifuged for 45 minutes at 1200 rpm (350×g), and PBMC were collected from the buffy coat. Cells were then washed twice in PBS, and red blood cells were lysed by suspension in 5 ml ammonium chloride solution (1× Red Blood Cell Lysis Buffer, eBioscience) for 5 minutes at room temperature. After a final wash in PBS, PBMC were resuspended at a final concentration of 2×10^6/ml in RPMI-1640 media with L-glutamine (Invitrogen) and supplemented with 25 mM HEPES (Mediatech, Inc, Manassas Va.), 10% fetal bovine serum (HyClone, Logan, Utah), and Penicillin-Streptomycin-Glutamine (Mediatech) and plated at 100 ul/well (2×10^5 cells/well) in tissue culture treated 96-well plates (Falcon).
Antagonist compounds solubilized and serial diluted in 100% DMSO were added in triplicate to cells to yield a final concentration of 0.1% DMSO (v/v). Hydroxychloroquine (Acros Organics) solubilized and serial diluted in PBS was added in triplicate to cells. PBMC were incubated with antagonist compounds or HCQ for 30 minutes at 37° C., 5% CO2 before adding various TLR agonist reagents in 100 ul complete media per well as follows (final concentrations indicated): R848 (Resiquimod; GLSynthesis, Worcester, Mass.) at 1 uM for TLR7 and TLR8, Pam3CSK4 (InvivoGen) at 50 ng/ml for TLR1/2, LPS (Sigma) at 10 ng/ml for TLR4, and CpG-2216 (InvivoGen) at 5 ug/ml for TLR9. […] The resulting “RNA-Ig” stimulus was incubated at room temperature for 15-30 minutes before adding to cells. PBMC were incubated with the various TLR agonists for 20 hours at 37° C., 5% CO2. Cell culture supernatants were collected, and levels of various human cytokines were assessed as indicated by standard ELISA procedure according to the manufacturer's recommended protocol (BD Biosciences, Inc., San Diego, Calif.).

A further experiment addresses T1, human TLR8 (Homo sapiens, UniProt Q9NR97).
T1 construct: host or cells: HEK-293 stably expressing hTLR8, then transfected with pNiFty2(NF-kappaB)-luciferase
T1 sequence (Q9NR97 27-1041): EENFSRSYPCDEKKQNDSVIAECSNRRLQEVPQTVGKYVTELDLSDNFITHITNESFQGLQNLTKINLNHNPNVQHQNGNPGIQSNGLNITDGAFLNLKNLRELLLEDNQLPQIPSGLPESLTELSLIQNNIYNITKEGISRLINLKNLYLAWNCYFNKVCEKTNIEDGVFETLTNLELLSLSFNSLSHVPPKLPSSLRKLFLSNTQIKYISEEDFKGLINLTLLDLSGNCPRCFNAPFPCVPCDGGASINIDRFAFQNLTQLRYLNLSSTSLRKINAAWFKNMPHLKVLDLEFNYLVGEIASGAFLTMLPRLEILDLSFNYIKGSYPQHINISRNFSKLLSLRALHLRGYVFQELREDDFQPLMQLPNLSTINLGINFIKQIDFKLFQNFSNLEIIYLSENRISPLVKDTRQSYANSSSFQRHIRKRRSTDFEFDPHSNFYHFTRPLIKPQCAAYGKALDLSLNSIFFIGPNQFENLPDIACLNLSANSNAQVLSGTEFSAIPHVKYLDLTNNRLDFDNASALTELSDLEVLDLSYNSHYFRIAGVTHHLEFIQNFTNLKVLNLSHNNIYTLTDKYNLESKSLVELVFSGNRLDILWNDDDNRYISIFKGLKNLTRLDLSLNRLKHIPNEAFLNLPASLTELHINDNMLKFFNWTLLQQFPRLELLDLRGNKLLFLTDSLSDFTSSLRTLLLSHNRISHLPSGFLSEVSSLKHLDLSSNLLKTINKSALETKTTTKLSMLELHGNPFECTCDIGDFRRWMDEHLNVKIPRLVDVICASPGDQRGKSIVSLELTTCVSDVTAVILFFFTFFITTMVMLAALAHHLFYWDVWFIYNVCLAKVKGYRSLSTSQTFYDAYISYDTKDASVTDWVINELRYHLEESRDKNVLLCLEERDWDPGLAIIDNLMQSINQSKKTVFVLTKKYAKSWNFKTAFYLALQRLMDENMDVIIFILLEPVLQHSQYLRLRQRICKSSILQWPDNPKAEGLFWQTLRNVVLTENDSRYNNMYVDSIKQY
The experiment can be described thus: HEK-293 assay format, human TLR8 (CL097). It counts as cell-based. To be noted: read-out: HEK/hTLR8 IC50. From the text:
HEK-293 cells (ATCC) were engineered to stably express a NF-kappaB transcription factor inducible E-selectin (ELAM-1) luciferase reporter derived from the plasmid pGL3 (Promega) containing base pairs −2241 bp to −254 bp from the promoter of the human E-selectin gene (Accession No. NM_000450). These cells were then subsequently engineered to stably and individually express human TLR4, TLR7 or TLR9 full-length ORF cDNAs. Human TLR4 cDNA (Accession No. NM_138554) was cloned into pcDNA 3.0 expression vector (Invitrogen). TLR4 transfected cells were also engineered to express human MD-2 co-receptor [MD-2 cDNA (Accession No. NM_015364) was cloned into the pEF-BOS vector] and were supplemented with 10 nM soluble CD14 (R&D Systems) in the media to optimize LPS responsiveness. Human TLR9 cDNA (Accession No. NM_017442) was cloned into the pBluescript II KS vector (Agilent). Human TLR7 cDNA (Accession No. NM_016562) was obtained from OriGene. HEK-293 cells stably expressing human TLR8 (Accession No. NM_138636) or mouse TLR7 (Accession No. NM_133211) were purchased from InvivoGen and were then stably transfected with pNiFty2(NF-kappaB)-luciferase reporter plasmid (InvivoGen). Each cell type was plated in Dulbecco's modified Eagle's medium (DMEM) containing 10% fetal bovine serum (FBS) at a density of 2.22×10^5 cells/ml into a 384-well plate and incubated for 2 days at 37° C., 5% CO2. […]

For another experiment, the target named is Human TLR4 (Homo sapiens, UniProt O00206). The experiment in a line: Human PBMC cell-based assay, LPS stimulation, IL-6. Further details: endogenous in cells; host or cells: primary human PBMC from healthy donors. The note with it: Hu PBMC; ligand LPS. How it is done:
(§1) Human peripheral blood mononuclear cells (PBMC) were isolated from freshly-drawn heparinized (10 USP units/ml, Hospira, Lakeforest, Ill.) healthy donor whole blood by density gradient (Histopaque® 1077, Sigma, Inc., St. Louis, Mo.). Briefly, 25 ml blood was diluted with 15 ml PBS (without Ca^2+, Mg^2+) in a 50 ml conical tube, and 12 ml Histopaque was underlaid using a spinal needle. Tubes were centrifuged for 45 minutes at 1200 rpm (350×g), and PBMC were collected from the buffy coat. Cells were then washed twice in PBS, and red blood cells were lysed by suspension in 5 ml ammonium chloride solution (1× Red Blood Cell Lysis Buffer, eBioscience) for 5 minutes at room temperature. […]
(§2) Antagonist compounds solubilized and serial diluted in 100% DMSO were added in triplicate to cells to yield a final concentration of 0.1% DMSO (v/v). […] Cell culture supernatants were collected, and levels of various human cytokines were assessed as indicated by standard ELISA procedure according to the manufacturer's recommended protocol (BD Biosciences, Inc., San Diego, Calif.).

A further experiment addresses T2, Human TLR9 (Homo sapiens, UniProt Q9NR96).
T2 sequence (Q9NR96 26-1032): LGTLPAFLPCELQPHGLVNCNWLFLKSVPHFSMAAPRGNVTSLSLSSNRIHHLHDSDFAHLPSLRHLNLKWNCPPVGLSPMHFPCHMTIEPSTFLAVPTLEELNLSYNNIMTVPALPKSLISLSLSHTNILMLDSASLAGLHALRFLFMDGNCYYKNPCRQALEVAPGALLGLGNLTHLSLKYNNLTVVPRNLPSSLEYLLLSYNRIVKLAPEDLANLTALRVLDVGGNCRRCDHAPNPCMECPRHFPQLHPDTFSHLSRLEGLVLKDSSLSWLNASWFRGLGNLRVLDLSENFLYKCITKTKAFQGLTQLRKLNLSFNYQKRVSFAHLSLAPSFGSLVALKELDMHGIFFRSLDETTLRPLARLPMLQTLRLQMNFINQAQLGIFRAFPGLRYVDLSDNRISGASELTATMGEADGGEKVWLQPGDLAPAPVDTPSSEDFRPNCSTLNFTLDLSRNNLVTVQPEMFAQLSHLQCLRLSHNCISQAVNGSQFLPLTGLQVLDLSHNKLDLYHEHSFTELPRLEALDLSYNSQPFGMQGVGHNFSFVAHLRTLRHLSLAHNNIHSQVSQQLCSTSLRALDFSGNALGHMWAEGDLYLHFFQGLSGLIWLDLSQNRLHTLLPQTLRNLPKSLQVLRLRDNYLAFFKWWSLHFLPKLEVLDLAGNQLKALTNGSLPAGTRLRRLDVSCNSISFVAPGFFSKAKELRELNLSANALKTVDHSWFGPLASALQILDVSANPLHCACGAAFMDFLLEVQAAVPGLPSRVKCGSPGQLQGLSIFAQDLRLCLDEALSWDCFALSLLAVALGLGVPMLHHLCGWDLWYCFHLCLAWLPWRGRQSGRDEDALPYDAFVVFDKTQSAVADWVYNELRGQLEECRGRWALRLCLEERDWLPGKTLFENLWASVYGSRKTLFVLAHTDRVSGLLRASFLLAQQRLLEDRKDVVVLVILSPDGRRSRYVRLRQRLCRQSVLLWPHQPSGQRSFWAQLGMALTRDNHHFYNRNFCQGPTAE
The experiment can be described thus: Human PBMC cell-based assay, CpG-ODN stimulation, IL-6. Also on record: endogenous in cells; host or cells: primary human PBMC from healthy donors. To be noted: Hu PBMC; ligand CpG-ODN. As to the method:
as §1, §2

Human TLR4, sequence (O00206 24-839): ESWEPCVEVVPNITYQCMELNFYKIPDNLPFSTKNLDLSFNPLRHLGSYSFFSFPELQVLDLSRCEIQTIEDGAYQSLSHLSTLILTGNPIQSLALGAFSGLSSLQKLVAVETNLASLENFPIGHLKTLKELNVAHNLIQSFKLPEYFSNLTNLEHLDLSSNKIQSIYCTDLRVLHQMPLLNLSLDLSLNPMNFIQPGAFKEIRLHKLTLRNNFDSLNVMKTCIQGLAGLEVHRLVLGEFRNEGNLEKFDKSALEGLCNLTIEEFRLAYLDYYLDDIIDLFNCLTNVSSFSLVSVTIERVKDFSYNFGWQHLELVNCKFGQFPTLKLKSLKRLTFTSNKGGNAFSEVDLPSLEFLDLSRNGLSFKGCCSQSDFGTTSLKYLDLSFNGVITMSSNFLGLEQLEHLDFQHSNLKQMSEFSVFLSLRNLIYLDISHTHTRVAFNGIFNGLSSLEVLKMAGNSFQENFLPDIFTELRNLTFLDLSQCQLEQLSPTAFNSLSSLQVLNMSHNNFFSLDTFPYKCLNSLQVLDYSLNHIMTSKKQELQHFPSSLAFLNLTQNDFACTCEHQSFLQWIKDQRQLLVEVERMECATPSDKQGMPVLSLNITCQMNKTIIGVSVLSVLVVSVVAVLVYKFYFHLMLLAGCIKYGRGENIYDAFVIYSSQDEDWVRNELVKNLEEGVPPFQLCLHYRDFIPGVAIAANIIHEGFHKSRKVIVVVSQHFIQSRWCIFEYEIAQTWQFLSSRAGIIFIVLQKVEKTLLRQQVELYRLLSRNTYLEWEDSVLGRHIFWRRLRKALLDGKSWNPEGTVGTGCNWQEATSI
Human TLR4, sequence (Q9Y6Y9 19-160 partner): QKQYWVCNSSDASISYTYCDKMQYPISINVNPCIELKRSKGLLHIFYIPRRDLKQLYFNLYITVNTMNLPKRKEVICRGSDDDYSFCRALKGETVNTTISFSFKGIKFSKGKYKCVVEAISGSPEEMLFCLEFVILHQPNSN

Take `N#Cc1ccc(N2CCC[C@@H](N)C2)c2cccnc12` [ER-878921]: the IC50 in the experiment with Human TLR7/8 worked out at 0.09 µM; at human TLR8 it was 0.074 µM.
Regarding `CCN(CCO)CCCC(C)Nc1ccnc2cc(Cl)ccc12` (stereo not shown) [HCQ, Hydroxychloroquine], the figures for the IC50 at Human TLR4 and at Human TLR9 were above 10 µM and 0.15 to 0.3 µM, respectively.
